In patent publication US7759366B2 (Sanofi-Aventis, priority 2006, dated 2010):

The compounds below were run against hCB1R (Homo sapiens, UniProt P21554) (assay: In vitro functional assay (FLIPR, intracellular Ca2+) with recombinant HEK293 cells, CB1). Settings: recombinant HEK293 cells expressing CB1 and Galpha16; 20 min preincubation, then reference agonist; Ca2+ change; read-out: hCB1R: FLIPR; IC50.
hCB1R, sequence (P21554 whole entry): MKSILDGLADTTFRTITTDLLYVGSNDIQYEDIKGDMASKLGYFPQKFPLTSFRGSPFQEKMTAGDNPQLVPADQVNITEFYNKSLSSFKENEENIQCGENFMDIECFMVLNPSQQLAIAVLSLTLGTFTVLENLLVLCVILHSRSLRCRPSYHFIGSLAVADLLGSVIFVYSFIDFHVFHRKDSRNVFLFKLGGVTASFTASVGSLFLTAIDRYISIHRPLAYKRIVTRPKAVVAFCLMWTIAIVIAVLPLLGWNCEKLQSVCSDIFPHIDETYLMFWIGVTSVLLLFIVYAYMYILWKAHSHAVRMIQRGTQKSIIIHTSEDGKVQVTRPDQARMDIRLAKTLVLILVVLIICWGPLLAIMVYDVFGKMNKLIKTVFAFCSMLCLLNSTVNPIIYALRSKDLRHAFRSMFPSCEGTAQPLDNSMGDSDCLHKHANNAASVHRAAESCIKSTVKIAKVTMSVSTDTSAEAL
Assay type: cell-based
Set-up: expressed in transfected cells; host or cells: HEK293
Text: In Vitro Functional Assays with Recombinant Cells:

Compared with `CC(=O)Nc1ccc(Nc2ccccc2CN2C(=O)N(c3ccc(C#N)c(C(F)(F)F)c3)C(=O)C2(C)C)cc1` [Example 148, N-(4-{2-[3-(4-Cyano-3-trifluoromethylphenyl)-5,5-dimethyl-2,4-dioxoimidazolidin-1-ylmethyl]phenylamino}phenyl)acetamide], `CC1(C)C(=O)N(c2ccc(C#N)c(C(F)(F)F)c2)C(=O)N1Cc1ccccc1Nc1ccc(Cl)cc1` [Example 4, 4-{3-[2-(4-chlorophenylamino)benzyl]-4,4-dimethyl-2,5-dioxoimidazolidin-1-yl}-2-trifluoromethylbenzonitrile] is 2.8-fold lower in IC50: 11 nM for the first, 4 nM for the second. The second is the more potent here.

First: COC(=O)c1ccc(Nc2cc(F)ccc2CN2C(=O)N(c3ccc(F)c(C(F)(F)F)c3)C(=O)C2(C)C)cn1 [Example 255, Methyl 5-{5-fluoro-2-[3-(4-fluoro-3-trifluoromethylphenyl)-5,5-dimethyl-2,4-dioxoimidazolidin-1-ylmethyl]phenylamino}pyridine-2-carboxylate]
Second: CC1(C)C(=O)N(c2ccc(F)c(C(F)(F)F)c2)C(=O)N1Cc1ccc(F)cc1Nc1ccc(NS(C)(=O)=O)cc1 [Example 240, N-(4-{5-Fluoro-2-[3-(4-fluoro-3-trifluoromethylphenyl)-5,5-dimethyl-2,4-dioxoimidazolidin-1-ylmethyl]phenylamino}phenyl)methanesulfonamide]
The IC50 of the first is 2.5-fold higher: 28 nM for the first, 11 nM for the second. The second is the more potent here.

`CC1(C)C(=O)N(c2ccc(C#N)c(C(F)(F)F)c2)C(=O)N1Cc1ccccc1Nc1ccc(C#N)cc1` [Example 33, 4-{3-[2-(4-cyanophenylamino)benzyl]-4,4-dimethyl-2,5-dioxoimidazolidin-1-yl}-2-trifluoromethylbenzonitrile] and `CC1(C)C(=O)N(c2ccc(C#N)c(C(F)(F)F)c2)C(=O)N1Cc1ccccc1Nc1ccc(N)cc1` [Example 113, 4-{3-[2-(4-Aminophenylamino)benzyl]-4,4-dimethyl-2,5-dioxoimidazolidin-1-yl}-2-trifluoromethylbenzonitrile] are the same in IC50: 4 nM for the first, 4 nM for the second.

`CC1(C)C(=O)N(c2ccc(C#N)c(C(F)(F)F)c2)C(=O)N1Cc1ccccc1Nc1ccc(Cl)c(Cl)c1` [Example 20, 4-{3-[2-(3,4-dichlorophenylamino)benzyl]-4,4-dimethyl-2,5-dioxoimidazolidin-1-yl}-2-trifluoromethylbenzonitrile] and `CC1(C)C(=O)N(c2ccc(C#N)c(C(F)(F)F)c2)C(=O)N1Cc1ccccc1Nc1ccc(N)c(F)c1` [Example 95, 4-{3-[2-(4-Amino-3-fluorophenylamino)benzyl]-4,4-dimethyl-2,5-dioxoimidazolidin-1-yl}-2-trifluoromethylbenzonitrile] are within 1.5-fold of each other in IC50: 21 nM for the first, 31 nM for the second.

First: CC1(C)C(=O)N(c2ccc(C#N)c(C(F)(F)F)c2)C(=O)N1Cc1ccc(F)cc1Nc1ccc(C(=O)O)cc1 [Example 133, 4-{2-[3-(4-cyano-3-trifluoromethylphenyl)-5,5-dimethyl-2,4-dioxoimidazolidin-1-ylmethyl]-5-fluorophenylamino}benzoic acid]
Second: CC(C)(C)OC(=O)c1ccc(Nc2cc(F)ccc2CN2C(=O)N(c3ccc(C#N)c(C(F)(F)F)c3)C(=O)C2(C)C)cc1 [Example 125, tert-butyl 4-{2-[3-(4-cyano-3-trifluoromethylphenyl)-5,5-dimethyl-2,4-dioxoimidazolidin-1-ylmethyl]-5-fluorophenylamino}benzoate]
The IC50 of the first is 11-fold lower: 10 nM for the first, 110 nM for the second. The first is the more potent here.

Going from `CC1(C)C(=O)N(c2ccc(F)c(C(F)(F)F)c2)C(=O)N1Cc1ccc(F)cc1Nc1ccc2c(c1)C(=O)CC2` [Example 205, 1-[4-fluoro-2-(3-oxoindan-5-ylamino)benzyl]-3-(4-fluoro-3-trifluoromethylphenyl)-5,5-dimethylimidazolidine-2,4-dione] to `CC1(C)C(=O)N(c2ccc(C#N)c(C(F)(F)F)c2)C(=O)N1Cc1ccccc1Nc1ccccc1Cl` [Example 21, 4-{3-[2-(2-chlorophenylamino)benzyl]-4,4-dimethyl-2,5-dioxoimidazolidin-1-yl}-2-trifluoromethylbenzonitrile], the IC50 falls from 17 nM to 10 nM (1.7-fold). The second is the more potent here.
